Assay results from patent publication US20160354359A1, “C[…]-[…] A NET INHIBITOR FOR ADM[…] A BRAIN-DEAD, HEART-BEATING POTENTIAL ORGAN DONOR” (VIVOLINE MEDICAL AB, priority 2008, published 2016).

Experiments:
[1] = in vivo; cited from earlier work
blood pressure = conditions: in vivo; cited from earlier work
[2] = target: NET (norepinephrine transporter) (Homo sapiens, UniProt P23975); conditions: cited from earlier work
brain-dead body of a pig [3] = conditions: adrenaline and noradrenaline at constant 0.4 ml/hour
Description: In this experiment, adrenaline and noradrenaline was added at a constant rate of 0.4 ml/hour.

brain-dead pigs = assay: More than 20 experiments with pigs using cocaine in combination with adrenaline and noradrenaline, blood pressure over 24 hours; format: in vivo, pig; conditions: from initiation of the intervention and over 24 hours
Description: The inventor has performed more than 20 experiments with pigs and using cocaine in combination with adrenaline and noradrenaline.

[4] = system: brain-dead, heart-beating, respirated donor; conditions: blood circulation
Description: In order to test this hypothesis, other NET inhibitors were tested, such as desipramine and imipramine, which both are known to be NET inhibitors.

brain-dead body of a pig [5] = assay: Experiment 2: infusion of desipramine solution with adrenaline and noradrenaline, blood pressure
Description: In addition 1 mg of adrenaline and 1 mg of noradrenaline was included in the solution.

alpha-1 = assay: Potency as replacement of noradrenaline (alpha-1-agonist)
Description: In some embodiments, the adrenaline and/or noradrenaline may be partly or entirely replaced by an equivalent substance. For example, phenylephrine is an alpha-1-agonist and may replace noradrenaline.

NET (norepinephrine transporter), sequence (P23975 whole entry, species assumed): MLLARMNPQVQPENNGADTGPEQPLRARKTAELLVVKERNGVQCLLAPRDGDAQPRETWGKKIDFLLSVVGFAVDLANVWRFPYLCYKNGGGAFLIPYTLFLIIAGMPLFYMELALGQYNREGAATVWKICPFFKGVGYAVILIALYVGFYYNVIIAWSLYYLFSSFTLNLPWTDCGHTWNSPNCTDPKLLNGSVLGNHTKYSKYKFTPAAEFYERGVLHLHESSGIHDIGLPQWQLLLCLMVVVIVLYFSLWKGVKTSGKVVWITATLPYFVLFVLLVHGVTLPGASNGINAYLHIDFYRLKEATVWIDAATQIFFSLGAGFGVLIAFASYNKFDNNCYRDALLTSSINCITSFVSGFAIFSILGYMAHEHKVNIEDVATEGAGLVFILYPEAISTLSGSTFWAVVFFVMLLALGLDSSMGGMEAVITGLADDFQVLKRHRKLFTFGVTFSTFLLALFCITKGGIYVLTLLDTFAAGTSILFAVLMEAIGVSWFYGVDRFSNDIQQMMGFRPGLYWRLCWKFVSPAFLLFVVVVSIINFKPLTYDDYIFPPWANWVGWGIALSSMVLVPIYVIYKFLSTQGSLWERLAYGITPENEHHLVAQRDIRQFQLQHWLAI

Question: With NC(=O)CC[C@@H]1NC(=O)[C@H](Cc2ccccc2)NC(=O)[C@H](Cc2ccc(O)cc2)NC(=O)[C@@H](N)CSSC[C@@H](C(=O)N2CCC[C@H]2C(=O)N[C@@H](CCCN=C(N)N)C(=O)NCC(N)=O)NC(=O)[C@H](CC(N)=O)NC1=O [ADH, vasopressin] as the compound, how does the half-life-time [1] read?
Answer: Its half-life-time is “about 15 minutes”.

Question: Which “effect of infusion on blood pressure” value (blood pressure) does the source give for CCN(CC)CC(=O)Nc1c(C)cccc1C [Lidocaine] here?
Answer: Its value is “vasodilatation and a lowering of the blood pressure”.

Question: For CNCCCN1c2ccccc2CCc2ccc(Cl)cc21 [Norclomipramine], which “potency among typical NET inhibitors” value [2] is on record?
Answer: Its value is “highest”.

Question: Which “potency among typical NET inhibitors” value [2] does the source give for CNCCCC1c2ccccc2C=Cc2ccccc21 [Protriptylin, Protriptyline] here?
Answer: Its value is “highest”.

Question: With COC(=O)[C@H]1[C@@H](OC(=O)c2ccccc2)C[C@@H]2CC[C@H]1N2C [cocaine, benzoylmethyl ecgonine] as the compound, how does the “effect of bolus on blood pressure” value (brain-dead body of a pig [3]; bolus of 2 mg at 21 hours) read?
Answer: Its value is “increase of the blood pressure”.

Question: What about the “time after which the effect of the bolus ceased” value (brain-dead body of a pig [3]; bolus of 2 mg at 21 hours) of the same compound?
Answer: The value was “about 3 hours”.

Question: What about the “blood pressure maintained at a constant level” value (brain-dead pigs) of the same compound?
Answer: The value was 70 mmHg.

Question: And the “effect of addition together with noradrenaline on noradrenaline needed for vasoconstriction” value [4]?
Answer: Its value is “much lower levels of noradrenaline”.

Question: And the half-life time [1]?
Answer: Its half-life time is “about 1 hours”.

Question: Which “mean pressure reached on infusion” value (brain-dead body of a pig [5]; 3 mg desipramine, 1 mg adrenaline, 1 mg noradrenaline in 50 ml, 1.7 then 3.2 ml/hour, from a mean pressure of about 40 mmHg) does the source give for CNCCCN1c2ccccc2CCc2ccccc21 [desipramine, Desipramine] here?
Answer: The value was 80 mmHg.

Question: And the “blood pressure after infusion rate was decreased” value (brain-dead body of a pig [5]; infusion decreased to 2.5 then 1.7 ml/hour, never decreased further)?
Answer: Its value is “about 60 mmHg”.

Question: And the half-life time [1]?
Answer: Its half-life time is 30 h.

Question: With CN(C)CCCN1c2ccccc2CCc2ccccc21 [imipramine, Imipramine] as the compound, how does the “blood pressure reached after bolus” value (brain-dead body of a pig [3]; bolus at 24.5 hours, from about 80 mmHg) read?
Answer: Its value is “about 100 mmHg”.

Question: Which “times less potent as noradrenaline” value (alpha-1) does the source give for CNC[C@H](O)c1cccc(O)c1 [phenylephrine] here?
Answer: Its value is “about 5 times”.
